Data as given in PMC10988555, “Exploiting Co(III)-Cyclopentadienyl Complexes To Develop Anticancer Agents” (Inorganic Chemistry, 2024).

How the values were obtained:
[1] = test system: ROS in A2780 cell line; experiment: Production of reactive oxygen species (H2DCF-DA flow cytometry); type: cell-based, human; details: A2780, IC50, 48 h, vs DMSO
Description: The production of ROS was evaluated in the A2780 cell line, seeded in 6-well plates at a density of 2 × 10^5 cells/well, and incubated for 24 h at the same conditions as described above. […] Later, cells were washed with PBS 1×, detached from the wells with TE, and incubated with […] of 2′,7′-dichlorodihydrofluorescein diacetate (H2DCF-DA) (ThermoFisher Scientific, Waltham, MA, USA) in PBS 1× for 20 min at 37 °C. The data were obtained through an Attune acoustic focusing flow cytometer (ThermoFisher Scientific) and respective software.

[2] = test system: Fibroblasts; experiment: Cell migration (scratch) assay; type: cell-based, human; details: IC50 concentrations, 24 h, normalized against DMSO (100%)
Description: Fibroblasts were seeded in 24-well plates at a density of 4 × 10^5 cells/mL and grown in the same conditions as described previously until a confluent monolayer was obtained. […] Images of the Fibroblasts were captured right after the exposure (0 h) to the complexes and after 24 h of incubation at 37 °C and 5% (v/v) CO2 in a humidified atmosphere, using CytoSMART Lux2 Live Cell Imager (Axion biosystems, USA) and Ti–U Eclipse Inverted microscope (Nikon Instruments, Japan). Images were analyzed with the ImageJ MRO Wound Healing Tool or with the scratch assay measurement of the CytoSMART cloud portal for the Lux system.

[3] = test system: A2780 cell line; experiment: Autophagy induction, flow cytometry; type: cell-based, human; details: for levels of autophagy: A2780, 48 h, complexes at IC50, DOX 0.4 μM, cisplatin 5 μM, rapamycin 500 nM for 15 h; for increase of autophagy compared to the control: A2780, IC50, 48 h, vs DMSO 0.1%
Description: The autophagy induced by complexes 2–4 was evaluated using the Autophagy Assay Kit (ab139484, Abcam, Cambridge, United Kingdom) according to the manufacturer’s instructions. For this, the A2780 cell line was seeded at a density of 2 × 10^5 cells/well in 6-well plates and incubated for 24 h at the conditions mentioned before. […] The positive control Rapamycin at 500 nM was incubated for only 15 h. After 48 h incubation, the cells were washed with PBS 1×, detached with TE, and treated with the Autophagy detection kit (Abcam, Cambridge, UK) according to the manufacturer’s instructions. The evaluation of autophagy induction was done through the Attune acoustic focusing flow cytometer (ThermoFisher Scientific) and respective software.

[4] = test system: HCT116 (human colorectal carcinoma) cell line; experiment: Antiproliferative activity, MTS assay, HCT116; type: cell-based; details: for IC50: 48 h exposure, MTS assay; for Selectivity index (SI), HCT116: IC50 fibroblasts/IC50 HCT116, values with * calculated taking fibroblast IC50 as 100 μM (minimal value)
Description: Human colorectal carcinoma cell line (HCT116), human breast cancer cell lines (MDA-MB-231 and MCF-7), and normal human primary dermal fibroblasts neonatal (PCS-201-010) cell line were grown in DMEM (Dulbecco’s modified Eagle’s medium) (Invitrogen Corp., Grand Island, NY, USA) supplemented with 10% (v/v) fetal bovine serum and 1% (v/v) antibiotic/antimycotic solution (Invitrogen Corp.). The human ovarian carcinoma (A2780) cell line was cultivated using RPMI (Roswell Park Memorial Institute) medium supplemented as in DMEM medium. The supplemented medium is named a complete medium. Cells were grown in an incubator with a humidified atmosphere at 5% (v/v) CO2 and 37 °C. All cell lines were purchased from ATCC (ATCC, American Type Culture Collection).
The evaluation of the cytotoxic potential of complexes 1–4 was obtained through in vitro measurements of the antiproliferative activity of these complexes. Cells were plated in 96-well plates at 7.5 × 10^4 cells/mL and incubated at 37 °C with 5% (v/v) CO2. After 24 h, the culture medium was replaced with fresh medium (100 μL) containing 0.1–50 μM of the different complexes and incubated for 48 h in tumor cell lines or containing 0.1–100 μM of the different complexes and incubated for 48 h in fibroblasts. […] The fibroblast cell line was used as a control of the cytotoxicity of the complexes for healthy cells. Cell viability was evaluated using Cell Titer 96 Aqueous Non-Radioactive Cell Proliferation Assay (Promega, Madison, WI, USA) using 3-(4,5-dimethylthiazol-2-yl)-5-(3-carboxymethoxyphenyl)-2-(4-sulfophenyl)-2H-tetrazolium inner salt (MTS), as described previously.[60] In metabolically active cells, enzymes present in the mitochondria catalyze a reaction in which NADPH/NADH is produced. These enzymes reduce the MTS reagent into a brownish product, Formazan, which can be quantified by measuring the absorbance at 490 nm. The quantity of formazan produced is directly proportional to the number of viable cells in the culture. This quantification was executed with a Biorad microplate reader Model 680 (Bio-Rad, Hercules, CA, USA). Half maximal inhibitory concentration (IC50) was calculated using GraphPad Prism 6 (GraphPadSoftware). We have calculated the ratio between the IC50 of fibroblasts and the IC50 of HCT116, A2780, MDA-MB-231, or MCF-7 cell lines for complexes 1–4 that was named herein as the Selectivity index (SI). To ensure the solubility of the complexes in all biological assays, complex solutions were freshly prepared and well solubilized before addition to the cells.

[5] = test system: DNA of A2780 cells; experiment: Single-cell gel electrophoresis (comet assay); type: cell-based, human; details: for fold increase in DNA in the tail compared to DMSO control: A2780, 10× IC50, 12 h; for % of DNA in the tail: A2780, complexes 10× IC50 for 12 h, H2O2 0.05% for 30 min at RT
Description: A2780 cells were seeded in 6-well plates with a density of 1 × 10^6 cells/well and incubated for 24 h in an incubator with a humidified atmosphere at 5% (v/v) CO2 and 37 °C. […] The complexes and DMSO were incubated at 37 °C for 12 h and H2O2 for 30 min at RT. Cells were harvested with a cell scraper and solutions with 1 × 10^5 cells/mL in PBS were prepared. It was withdrawn 10 μL from the solutions and added to 90 μL of 1.5% (w/v) low melting point agarose in 1× PBS and dropped on the slides prepared previously with a coating of 1.5% (w/v) agarose (normal melting point agarose) in 1× TAE buffer. After drying at 4 °C for 15 min, the slides were dipped into lysis solution (450 mM NaCl, 3.72% EDTA, 5 mM Tris; to which 10% (v/v) DMSO and 1% (v/v) Triton-X were added just before use) for 1 h at 4 °C, followed by their being dipped for 40 min into cold electrophoresis solution (1 mM EDTA, 300 mM NaOH, pH 13). Electrophoresis was performed at 4 °C for 30 min at 25 V using a Sub-Cell model 96 apparatus (Bio-Rad). Afterward, slides were placed in 0.1 M Tris–HCl buffer (pH 7.5) at 4 °C for 15 min for neutralization, followed by 15 min in methanol at 4 °C and drying at 37 °C. For visualization of comets, slides were hydrated with distilled water at 4 °C for 30 min, stained with 20 μL of GelRed working solution (3×), and covered with new coverslips. The slides were observed under a Ti–U Eclipse inverted microscope (Nikon Instruments, Japan) and analyzed by CometScore version 2.1 (TriTek). About 100 cells per sample were analyzed. The percentage of DNA in the tail was used as a measure of the total DNA strand breakage.

Row | SMILES | ROS production relative to control [1] | cellular remission [2] [%] | levels of autophagy [3] [%] | increase of autophagy compared to the control [3] [×] | IC50 [4] [µM] | Selectivity index (SI), HCT116 [4] | fold increase in DNA in the tail compared to DMSO control [5] [fold] | % of DNA in the tail [5] [%]
1 | Cc1ccnc(-c2cc(C)ccn2)c1.O=S(=O)([O-])C(F)(F)F.O=S(=O)([O-])C(F)(F)F.[Co+3].c1cc[cH-]c1.c1ccc(P(c2ccccc2)c2ccccc2)cc1 [Complex 2, [Co(η^5-C5H5)(PPh3)(Me2bipy)][(CF3SO3)2]] | only a slight increase in the % of ROS | 80.2 | 81.5 | 1.9 | 15.3 ± 0.2 | 6.5* | 3.1 | 39.7
2 | O=S(=O)([O-])C(F)(F)F.O=S(=O)([O-])C(F)(F)F.[Co+3].c1cc[cH-]c1.c1ccc(P(c2ccccc2)c2ccccc2)cc1.c1cnc2c(c1)ccc1cccnc12 [Complex 3, [Co(η^5-C5H5)(PPh3)(phen)][(CF3SO3)2]] | 1.7 × | 76.9 | – | 1.5 | 13.4 ± 0.1 | 7.5* | 3.2 | 42.4
3 | Nc1cc2cccnc2c2ncccc12.O=S(=O)([O-])C(F)(F)F.O=S(=O)([O-])C(F)(F)F.[Co+3].c1cc[cH-]c1.c1ccc(P(c2ccccc2)c2ccccc2)cc1 [Complex 4, [CoCp(PPh3)(NH2phen)][(CF3SO3)2]] | 1.9 × | 78.1 | 95.5 | 2.2 | 14.1 ± 0.2 | 7.1* | 4.4 | 56.4
